Data as given in the NIST ThermoML archive (doi:10.1021/acs.jced.6b00168).

Assay: mn = molality of the nth substance listed, in mol/kg
Conditions: 100 kPa, Liquid; for speed of sound: Frequency=3 MHz, Sing-around technique in a fixed-path interferometer; for mass density: Vibrating tube method

CC(C)C[C@H](NC(=O)CN)C(=O)O [glycyl-L-leucine] + O
Conditions | mass density, 288.15 K [kg/m3] | mass density, 298.15 K [kg/m3] | mass density, 308.15 K [kg/m3] | mass density, 318.15 K [kg/m3] | speed of sound, 288.15 K [m/s] | speed of sound, 298.15 K [m/s] | speed of sound, 308.15 K [m/s] | speed of sound, 318.15 K [m/s]
m1 = 0.01036 | 999.623 | 997.544 | 994.554 | 990.713 | 1468.4 | 1497.4 | 1521 | 1537.6
m1 = 0.02041 | 1000.14 | 998.07 | 995.045 | 991.171 | 1470.1 | 1499 | 1522.6 | 1539.1
m1 = 0.04005 | 1001.13 | 999.05 | 995.995 | 992.11 | 1473.3 | 1502 | 1525.5 | 1542
m1 = 0.06009 | 1002.13 | 999.995 | 996.94 | 993.02 | 1476.6 | 1505.2 | 1528.5 | 1544.9
m1 = 0.08023 | 1003.08 | 1000.95 | 997.866 | 993.927 | 1479.9 | 1508.3 | 1531.5 | 1547.9
m1 = 0.09965 | 1004.02 | 1001.9 | 998.802 | 994.85 | 1483.1 | 1511.3 | 1534.4 | 1550.7
m1 = 0.1502 | 1006.4 | 1004.28 | 1001.19 | 997.236 | 1491.4 | 1519.2 | 1542 | 1558.2
m1 = 0.2014 | 1008.79 | 1006.66 | 1003.57 | 999.61 | 1499.8 | 1527.1 | 1549.7 | 1565.7

CC(C)C[C@H](N)C(=O)O [L-leucine] + O
Conditions | mass density, 288.15 K [kg/m3] | mass density, 298.15 K [kg/m3] | mass density, 308.15 K [kg/m3] | mass density, 318.15 K [kg/m3] | speed of sound, 288.15 K [m/s] | speed of sound, 298.15 K [m/s] | speed of sound, 308.15 K [m/s] | speed of sound, 318.15 K [m/s]
m1 = 0.00991 | 999.363 | 997.29 | 994.279 | 990.433 | 1468 | 1497 | 1520.5 | 1537
m1 = 0.02042 | 999.615 | 997.535 | 994.535 | 990.663 | 1469.3 | 1498.2 | 1521.5 | 1538
m1 = 0.04026 | 1000.09 | 998.005 | 994.994 | 991.098 | 1471.8 | 1500.4 | 1523.5 | 1539.8
m1 = 0.06014 | 1000.6 | 998.476 | 995.441 | 991.533 | 1474.2 | 1502.6 | 1525.5 | 1541.7
m1 = 0.0802 | 1001.07 | 998.929 | 995.893 | 991.972 | 1476.7 | 1504.9 | 1527.5 | 1543.5
m1 = 0.1002 | 1001.57 | 999.402 | 996.345 | 992.41 | 1479.2 | 1507.1 | 1529.5 | 1545.3
m1 = 0.1246 | 1002.13 | 999.979 | 996.896 | 992.945 | 1482.3 | 1509.8 | 1532 | 1547.6
m1 = 0.1502 | 1002.71 | 1000.56 | 997.446 | 993.506 | 1485.5 | 1512.7 | 1534.6 | 1550
